Molecular target: T1, LexPR transactivator (Homo sapiens, UniProt P06401)
T1 construct: expressed in transfected cells; host or cells: germline-transgenic zebrafish (Danio rerio) carrying the Ds transposon driver cassette pDs(krt8:LPR-LOP:G4) or derivatives
T1 sequence (P06401 640-914): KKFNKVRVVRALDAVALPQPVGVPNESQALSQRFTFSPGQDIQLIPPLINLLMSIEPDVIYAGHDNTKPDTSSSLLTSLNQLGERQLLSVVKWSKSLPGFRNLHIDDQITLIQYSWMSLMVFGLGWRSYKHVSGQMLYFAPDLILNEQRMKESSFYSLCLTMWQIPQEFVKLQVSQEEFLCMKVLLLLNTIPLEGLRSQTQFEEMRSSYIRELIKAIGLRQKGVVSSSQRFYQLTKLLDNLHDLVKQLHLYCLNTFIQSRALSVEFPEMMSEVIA
Test: Inducible expression of EGFP-KrasV12 in transgenic zebrafish
Type: in vivo
Details: 10 μM at 10 hpf onwards
Source text: Transgenic zebrafish line harboring insertion of the binary driver construct Ds(krt8:LPR-LOP:EGFP-Kras^V12) containing EGFP-Kras^V12 under control of the LexOP, F2 (FIG. 12a-12e, FIG. 12g). FIG. 12a: 24 hpf, no induction. […] FIG. 12f: Transgenic fish harboring the unmodified driver-reporter construct pDs(krt8:LPR-LOP:G4) containing EGFP gene under control of the LexOP.

- Effect of induced EGFP-KrasV12 expression on F2 embryos: embryo development was severely affected
Compound: CC#C[C@]1(O)CC[C@H]2[C@@H]3CCC4=CC(=O)CCC4=C3[C@@H](c3ccc(N(C)C)cc3)C[C@@]21C [mifepristone]

Source: patent US8852928B2, “LexA-based chemical-inducible gene expression system for use in transgenic animals” (Temasek Life Sciences Laboratory Limited, priority 2007, dated 2014)
